Earlier results, collected in US20090312435A1, “SUBSTITUTED PHENETHYLAMINES WITH SEROTONINERGIC AND/OR NOREPINEPHRINERGIC ACTIVITY” (AUSPEX PHARMACEUTICALS, INC, priority 2006, published 2009).
“And” between values parts separate entries of the source, which are not always exact repeats. Identical values can stand only once. Like-named read-outs stand apart in the source and are kept apart here.

Row | half-life (T1/2) (human, in vivo) [h] | half-life (T1/2) (in humans) | Compound
1 | ~11 | – | CN(C)CC(c1ccc(O)cc1)C1(O)CCCCC1 (centres unmarked) [O-desmethylvenlafaxine]
2 | – | ~5 h and 3 to 7 h | COc1ccc(C(CN(C)C)C2(O)CCCCC2)cc1 (racemic) [venlafaxine]
